Reference: patent US8969331B2, “Treatment of skin and mucosal superficial wounds using adrenergic receptor agonists” (priority 2008, dated 2015)

Tested on: small cuts and/or abrasions
Assay: topical application of epinephrine compositions to small cuts and/or abrasions
Format: in vivo
Conditions: compositions containing from about 0.001 mg/ml to about 2.5 mg/ml, applied topically
[1] = compared with wounds untreated or treated with conventional methods

CNC[C@H](O)c1ccc(O)c(O)c1 [epinephrine]
scab formation on treated skin areas (assessed visually): no scabs were formed visually | control of bleeding [1]: faster control of bleeding | healing of small cuts and/or abrasions [1]: promoted healing of small cuts and/or abrasions
